Data reported in BigSolDB 2.1.

COC(=O)Nc1nc2ccc(Sc3ccccc3)cc2[nH]1
solubility (mole fraction)
Settings	in 1,4-dioxane	in acetone	in acetonitrile	in ethanol	in ethyl acetate	in isopropanol	in methanol	in n-butanol	in n-propanol
273.15 K	–	0.000154	1.31e-05	4.24e-05	0.000266	2.01e-05	3.69e-05	7.43e-05	5.94e-05
278.15 K	–	0.000167	1.53e-05	4.62e-05	0.000308	2.39e-05	3.99e-05	8.03e-05	6.58e-05
283.15 K	–	0.00018	1.79e-05	5.02e-05	0.000361	2.8e-05	4.28e-05	8.71e-05	7.33e-05
288.15 K	0.0011	0.000194	2.06e-05	5.44e-05	0.000415	3.24e-05	4.57e-05	9.47e-05	8.16e-05
293.15 K	0.00127	0.000209	2.36e-05	5.92e-05	0.000468	3.65e-05	4.86e-05	0.000102	8.97e-05
298.15 K	0.00145	0.000225	2.68e-05	6.41e-05	0.000533	4.12e-05	5.14e-05	0.000111	9.97e-05
303.15 K	0.00166	0.000241	3.06e-05	6.99e-05	0.000601	4.62e-05	5.54e-05	0.00012	0.000111
308.15 K	0.00189	0.00026	3.47e-05	7.62e-05	0.000684	5.2e-05	5.94e-05	0.000132	0.000123
313.15 K	0.00214	0.00028	3.99e-05	8.36e-05	0.000768	5.82e-05	6.33e-05	0.000143	0.000137
